In ChEMBL document CHEMBL2146395, “[¹⁸F]FE@SNAP-A new PET tracer for the melanin concentrating hormone receptor 1 (MCHR1): microfluidic and vessel-based approaches” (Bioorg Med Chem, 2012) one finds Activity, Kd and metabolised data, which are given here for three compounds.

Activity calls are given as the source filed them. The calls are words filed in the database; no cut-off is given here. Bounds are passed on as bounds.

For data set [1], the target named is T1, Melanin-concentrating hormone receptor 1 (Homo sapiens, UniProt Q99705). The experiment in a line: Binding affinity to human MCHR1 expressed in CHO cell membranes. The conditions noted are these: tested as the 18F-labelled form.
T1 sequence (Q99705 whole entry): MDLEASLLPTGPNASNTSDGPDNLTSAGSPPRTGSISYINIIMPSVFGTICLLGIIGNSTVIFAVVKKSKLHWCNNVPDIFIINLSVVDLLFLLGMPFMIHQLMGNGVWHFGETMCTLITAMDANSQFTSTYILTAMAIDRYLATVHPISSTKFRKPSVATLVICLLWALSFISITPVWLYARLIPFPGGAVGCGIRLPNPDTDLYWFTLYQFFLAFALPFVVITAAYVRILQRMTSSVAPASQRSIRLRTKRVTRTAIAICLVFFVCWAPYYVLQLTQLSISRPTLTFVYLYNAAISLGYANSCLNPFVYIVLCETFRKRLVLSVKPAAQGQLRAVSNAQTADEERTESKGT
In data set [2] the target is T1, Melanin-concentrating hormone receptor 1. The experiment in a line: Binding affinity to human MCHR1 expressed in COS7 cells. In kind it is cell-based, COS-7.
A short description of data set [3]: Drug degradation in human plasma up to 120 mins. In kind it is ADME, cell-free. The conditions noted are these: read-out: Drug degradation.
The next data set concerns carboxyl esterase. The experiment in a line: Drug degradation after 6 hrs in presence of carboxyl esterase. The data set is classed as physicochemical. The conditions noted are these: read-out: Drug degradation.

`COCC1=C(C(=O)OCCF)C(c2ccc(F)c(F)c2)N(C(=O)NCCCN2CCC(c3cccc(NC(C)=O)c3)CC2)C(=O)N1` (centres undefined): in data set [1], the result was Active.
For `COCC1=C(C(=O)OC)[C@H](c2ccc(F)c(F)c2)N(C(=O)NCCCN2CCC(c3cccc(NC(C)=O)c3)CC2)C(=O)N1`, in data set [2], the dissociation constant (Kd) was 0.18 nM.
Consider `COCC1=C(C(=O)OCC[18F])C(c2ccc(F)c(F)c2)N(C(=O)NCCCN2CCC(c3cccc(NC(C)=O)c3)CC2)C(=O)N1` (centres undefined), for which the metabolised at 2 h in data set [3] was under 5%. In addition, the metabolised at 6 h in the data set with carboxyl esterase is 20%.

The term Kd denotes the concentration at which binding is half-saturated.
